US20050282755A1, “Compositions having antimicrobial activity and uses thereof” (priority 2004, published 2005)
In brackets after ≈: the same amount, converted by molar mass. Non-standard residues stand in square brackets, D forms with d. Residues, ends and D or L forms follow the SMILES beside them. *: point of attachment. 1Nal = N[C@@H](Cc1cccc2ccccc12)C(=O)O; Stearoyl = CCCCCCCCCCCCCCCCCC(=O)*; Lauroyl = CCCCCCCCCCCC(=O)*; Octanoyl = CCCCCCCC(=O)*; Hexanoyl = CCCCCC(=O)*

Key:
Type in all cases: cell-based
[1] = system: Escherichia coli ATCC 25922; assay: MIC, NCCLS M7-A6 broth microdilution (Table 9, no superscript); settings: ATCC 25922
Summary of the method: (§1)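 CAMHB microdilution; final inoculum 5×10^5–1×10^6 CFU/milliliter from log-phase culture; overnight, 37° C; MIC = lowest peptide conc. without visible growth (turbidity) vs no-peptide control.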

[2] = system: Pseudomonas aeruginosa ATCC 27853; assay: as above; settings: ATCC 27853
Summary of the method: as §1

[3] = system: Staphylococcus epidermidis ATCC 12228; assay: as above; settings: ATCC 12228
Summary of the method: as §1

Salmonella dublin (Lane) = assay: as above
Summary of the method: as §1

[4] = system: Staphylococcus aureus ATCC 29213; assay: MIC, NCCLS M7-A6 broth microdilution, cation-adjusted Mueller Hinton broth (Table 9, no superscript); settings: ATCC 29213
Summary of the method: as §1

SMILES | MIC E. coli [1] [µg/mL] | MIC P. aeruginosa [2] [µg/mL] | MIC S. epidermidis [3] [µg/mL] | MIC S. dublin (Salmonella dublin (Lane)) [µg/mL] | MIC S. aureus [4] [µg/mL]
CCCCCCCCCCCC(=O)N[C@H](CCCNC(=N)N)C(=O)N[C@H](CO)C(=O)N[C@H](CCCNC(=N)N)C(=O)N[C@H](Cc1c[nH]c2ccccc12)C(=O)N[C@H](C)C(=O)N[C@H](CC(=O)O)C(=O)N[C@@H](C(=O)N[C@H](C)C(=O)N[C@H](CCCNC(=N)N)C(=O)N[C@H](CC(N)=O)C(=O)N[C@H](Cc1ccccc1)C(=O)N[C@H](CCSC)C(=O)N[C@H](CCCNC(=N)N)C(N)=O)C(C)C [Peptide 229, Lauryl-rsrwadvarnfmr-NH2] (Lauroyl-[dR][dS][dR][dW][dA][dD][dV][dA][dR][dN][dF][dM][dR]-NH2) | 8 (≈ 4.33 µM) | 8 (≈ 4.33 µM) | 4 (≈ 2.17 µM) | 8 (≈ 4.33 µM) | 8 (≈ 4.33 µM)
CCCCCCCCCCCC(=O)N[C@H](CCCNC(=N)N)C(=O)N[C@H](Cc1c[nH]c2ccccc12)C(=O)N[C@H](CCCNC(=N)N)C(=O)N[C@H](CC(=O)O)C(=O)N[C@H](CC(C)C)C(=O)N[C@H](C)C(=O)N[C@H](CCCNC(=N)N)C(N)=O [Peptide 244, Lauryl-rwrdlar-NH2] (Lauroyl-[dR][dW][dR][dD][dL][dA][dR]-NH2) | 64 (≈ 55.5 µM) | >64 | 64 (≈ 55.5 µM) | >64 | 32 (≈ 27.7 µM)
CCCCCCCCCCCC(=O)N[C@@H](CCCNC(=N)N)C(=O)N[C@@H](CO)C(=O)N[C@@H](CCCNC(=N)N)C(=O)N[C@@H](Cc1cccc2ccccc12)C(=O)N[C@@H](CCCNC(=N)N)C(=O)N[C@@H](CC(=O)O)C(=O)N[C@@H](Cc1cccc2ccccc12)C(=O)N[C@@H](C)C(=O)N[C@@H](CCCNC(=N)N)C(=O)N[C@@H](CC(N)=O)C(=O)N[C@@H](Cc1ccccc1)C(=O)N[C@@H](CCSC)C(=O)N[C@@H](CCCNC(=N)N)C(N)=O [Peptide 153, Lauryl-RSRZRDZARNFMR-NH2 Z = 1-naphthylalanine] (Lauroyl-RSR[1Nal]RD[1Nal]ARNFMR-NH2) | 32 (≈ 15.7 µM) | 64 (≈ 31.4 µM) | 8 (≈ 3.92 µM) | 64 (≈ 31.4 µM) | 8 (≈ 3.92 µM)
CCCCCCCCCCCC(=O)N[C@H](CCCNC(=N)N)C(=O)N[C@H](CO)C(=O)N[C@H](CCCNC(=N)N)C(=O)N[C@H](CO)C(=O)N[C@H](CCCNC(=N)N)C(=O)N[C@H](CC(=O)O)C(=O)N[C@@H](C(=O)N[C@H](C)C(=O)N[C@H](CCCNC(=N)N)C(=O)N[C@H](CC(N)=O)C(=O)N[C@H](Cc1ccccc1)C(=O)N[C@H](CCSC)C(=O)N[C@H](CCCNC(=N)N)C(N)=O)C(C)C [Peptide 232, Lauryl-rsrsrdvarnfmr-NH2] (Lauroyl-[dR][dS][dR][dS][dR][dD][dV][dA][dR][dN][dF][dM][dR]-NH2) | >64 | >64 | 16 (≈ 8.73 µM) | >64 | >64
CCCCCC(=O)NCCCC[C@H](NC(=O)[C@H](CCCNC(=N)N)NC(=O)[C@H](CC(C)C)NC(=O)[C@H](Cc1ccccc1)NC(=O)[C@H](CC(N)=O)NC(=O)[C@H](CCCNC(=N)N)NC(=O)[C@H](C)NC(=O)[C@@H](NC(=O)[C@H](CC(=O)O)NC(=O)[C@H](CCCNC(=N)N)NC(=O)[C@H](Cc1c[nH]c2ccccc12)NC(=O)[C@H](CCCNC(=N)N)NC(=O)[C@H](CO)NC(=O)[C@@H](N)CCCNC(=N)N)C(C)C)C(N)=O [Peptide 178, H2N-RSRWRDVARNFLRK(Hexanyl)-NH2] (H-RSRWRDVARNFLRK(Hexanoyl)-NH2) | 8 (≈ 4.09 µM) | 16 (≈ 8.17 µM) | 2 (≈ 1.02 µM) | 16 (≈ 8.17 µM) | >64
CCCCCCCCCCCC(=O)N[C@H](CCCNC(=N)N)C(=O)N[C@H](CO)C(=O)N[C@H](CCCNC(=N)N)C(=O)N[C@H](Cc1c[nH]c2ccccc12)C(=O)N[C@H](CCCNC(=N)N)C(=O)N[C@H](CC(=O)O)C(=O)N[C@@H](C(=O)N[C@H](C)C(=O)N[C@H](CCCNC(=N)N)C(=O)N[C@H](CC(N)=O)C(=O)N[C@H](Cc1ccccc1)C(=O)N[C@H](CCSC)C(=O)N[C@H](C)C(N)=O)C(C)C [Peptide 231, Lauryl-rsrwrdvarnfma-NH2] (Lauroyl-[dR][dS][dR][dW][dR][dD][dV][dA][dR][dN][dF][dM][dA]-NH2) | >64 | 32 (≈ 17.3 µM) | 4 (≈ 2.17 µM) | >64 | 32 (≈ 17.3 µM)
CCCCCCCCCCCCCCCCCC(=O)N[C@@H](C(=O)N[C@H](CCCNC(=N)N)C(=O)N[C@@H](C(=O)N[C@H](CO)C(=O)N[C@H](CCCNC(=N)N)C(=O)N[C@@H](C(=O)NCC(=O)N[C@H](CCCNC(=N)N)C(=O)N[C@H](CO)C(=O)N[C@H](CCCNC(=N)N)C(=O)N[C@H](Cc1c[nH]c2ccccc12)C(=O)N[C@H](CCCNC(=N)N)C(=O)N[C@H](CC(=O)O)C(=O)N[C@H](Cc1c[nH]c2ccccc12)C(=O)N[C@H](CO)C(=O)N[C@H](CCCNC(=N)N)C(=O)N[C@H](CC(N)=O)C(=O)N[C@H](Cc1ccccc1)C(=O)N[C@H](CCSC)C(=O)N[C@H](CCCNC(=N)N)C(=O)N[C@H](C)C(=O)N[C@H](C)C(=O)N[C@@H](CCCCN)C(N)=O)[C@H](C)O)C(C)C)[C@H](C)O [Peptide 81, Stearyl-trvsrtgrsrwrdwsrnfmraaK-NH2] (Stearoyl-[dT][dR][dV][dS][dR][dT]G[dR][dS][dR][dW][dR][dD][dW][dS][dR][dN][dF][dM][dR][dA][dA]K-NH2) | 64 (≈ 20.3 µM) | >64 | 64 (≈ 20.3 µM) | 32 (≈ 10.2 µM) | 64 (≈ 20.3 µM)
CCCCCCCCCCCC(=O)N[C@H](CCCNC(=N)N)C(=O)N[C@H](C)C(=O)N[C@H](CCCNC(=N)N)C(=O)N[C@H](Cc1c[nH]c2ccccc12)C(=O)N[C@H](CCCNC(=N)N)C(=O)N[C@H](C)C(=O)N[C@@H](C(=O)N[C@H](C)C(=O)N[C@H](CCCNC(=N)N)C(=O)N[C@H](C)C(=O)N[C@H](Cc1ccccc1)C(=O)N[C@H](C)C(=O)N[C@H](CCCNC(=N)N)C(N)=O)C(C)C [Peptide 217, Lauryl-rarwravarafar-NH2] (Lauroyl-[dR][dA][dR][dW][dR][dA][dV][dA][dR][dA][dF][dA][dR]-NH2) | 16 (≈ 9.05 µM) | 8 (≈ 4.52 µM) | 2 (≈ 1.13 µM) | 2 (≈ 1.13 µM) | 1 (≈ 0.566 µM)
CCCCCCCCCCCC(=O)N[C@H](CCCNC(=N)N)C(=O)N[C@H](CO)C(=O)N[C@H](C)C(=O)N[C@H](Cc1c[nH]c2ccccc12)C(=O)N[C@H](CCCNC(=N)N)C(=O)N[C@H](CC(=O)O)C(=O)N[C@@H](C(=O)N[C@H](C)C(=O)N[C@H](CCCNC(=N)N)C(=O)N[C@H](CC(N)=O)C(=O)N[C@H](Cc1ccccc1)C(=O)N[C@H](CCSC)C(=O)N[C@H](CCCNC(=N)N)C(N)=O)C(C)C [Peptide 228, Lauryl-rsawrdvarnfmr-NH2] (Lauroyl-[dR][dS][dA][dW][dR][dD][dV][dA][dR][dN][dF][dM][dR]-NH2) | >64 | >64 | 16 (≈ 8.67 µM) | 64 (≈ 34.7 µM) | 64 (≈ 34.7 µM)
CCCCCCCC(=O)N[C@H](CCCNC(=N)N)C(=O)N[C@H](CO)C(=O)N[C@H](CCCNC(=N)N)C(=O)N[C@H](Cc1c[nH]c2ccccc12)C(=O)N[C@H](CCCNC(=N)N)C(=O)N[C@H](CC(=O)O)C(=O)N[C@@H](C(=O)N[C@H](C)C(=O)N[C@H](CCCNC(=N)N)C(=O)N[C@H](CC(N)=O)C(=O)N[C@H](Cc1ccccc1)C(=O)N[C@H](CC(C)C)C(=O)N[C@H](CCCNC(=N)N)C(N)=O)C(C)C [Peptide 189, Octyl-rsrwrdvarnflr-NH2] (Octanoyl-[dR][dS][dR][dW][dR][dD][dV][dA][dR][dN][dF][dL][dR]-NH2) | 16 (≈ 8.62 µM) | 32 (≈ 17.2 µM) | 4 (≈ 2.15 µM) | 8 (≈ 4.31 µM) | 32 (≈ 17.2 µM)
CCCCCC(=O)N[C@H](CCCNC(=N)N)C(=O)N[C@H](CO)C(=O)N[C@H](CCCNC(=N)N)C(=O)N[C@H](Cc1c[nH]c2ccccc12)C(=O)N[C@H](CCCNC(=N)N)C(=O)N[C@H](CC(=O)O)C(=O)N[C@@H](C(=O)N[C@H](C)C(=O)N[C@H](CCCNC(=N)N)C(=O)N[C@H](CC(N)=O)C(=O)N[C@H](Cc1ccccc1)C(=O)N[C@H](CC(C)C)C(=O)N[C@H](CCCNC(=N)N)C(N)=O)C(C)C [Peptide 188, Hexyl-rsrwrdvarnflr-NH2] (Hexanoyl-[dR][dS][dR][dW][dR][dD][dV][dA][dR][dN][dF][dL][dR]-NH2) | 64 (≈ 35 µM) | >64 | 16 (≈ 8.75 µM) | >64 | >64
CCCCCCCC(=O)NCCCC[C@H](NC(=O)[C@H](CCCNC(=N)N)NC(=O)[C@H](CCSC)NC(=O)[C@H](Cc1ccccc1)NC(=O)[C@H](CC(N)=O)NC(=O)[C@H](CCCNC(=N)N)NC(=O)[C@H](C)NC(=O)[C@@H](NC(=O)[C@H](CC(=O)O)NC(=O)[C@H](CCCNC(=N)N)NC(=O)[C@H](Cc1c[nH]c2ccccc12)NC(=O)[C@H](CCCNC(=N)N)NC(=O)[C@H](CO)NC(=O)[C@@H](N)CCCNC(=N)N)C(C)C)C(N)=O [Peptide 184, H2N-RSRWRDVARNFMRK(Octanyl)-NH2] (H-RSRWRDVARNFMRK(Octanoyl)-NH2) | 16 (≈ 7.99 µM) | >64 | 2 (≈ 0.998 µM) | 16 (≈ 7.99 µM) | 64 (≈ 31.9 µM)
